Results taken from the kinase profiling compilation of Christmann-Franck et al. (2016).

Legend:
Settings in all cases: compound 1.0 µM
PDPK1 (human) = PDPK1 (human) (UniProt O15530)
CSNK2A1 (human) = CSNK2A1 (human) (UniProt P68400)
MAPKAPK2 (human) = MAPKAPK2 (human) (UniProt P49137)
PAK4 (human) = PAK4 (human) (UniProt O96013)
GSK3B (human) = GSK3B (human) (UniProt P49841)
IKBKE (human) = IKBKE (human) (UniProt Q14164)
MAPK1 (human) = MAPK1 (human) (UniProt P28482)
SRC (human) = SRC (human) (UniProt P12931)
PRKACA (human) = PRKACA (human) (UniProt P17612)
IKBKB (human) = IKBKB (human) (UniProt O14920)
FGFR1 (human) = FGFR1 (human) (UniProt P11362)
AKT1 (human) = AKT1 (human) (UniProt P31749)
ROCK1 (human) = ROCK1 (human) (UniProt Q13464)
PRKCB1 (human) = PRKCB1 (human) (UniProt P05771)
MST4 (human) = MST4 (human) (UniProt Q9P289)
CDK2 (human) = CDK2 (human) (UniProt P24941)
LCK (human) = LCK (human) (UniProt P06239)
ABL1 (human) = ABL1 (human) (UniProt P00519)
INSR (human) = INSR (human) (UniProt P06213)
TAOK3 (human) = TAOK3 (human) (UniProt Q9H2K8)
MET (human) = MET (human) (UniProt P08581)
KDR (human) = KDR (human) (UniProt P35968)
CHEK1 (human) = CHEK1 (human) (UniProt O14757)
NTRK1 (human) = NTRK1 (human) (UniProt P04629)
AURKA (human) = AURKA (human) (UniProt O14965)
MAPK14 (human) = MAPK14 (human) (UniProt Q16539)
EGFR (human) = EGFR (human) (UniProt P00533)

Chain of CHEK1 (human) (O14757 whole entry, looked up): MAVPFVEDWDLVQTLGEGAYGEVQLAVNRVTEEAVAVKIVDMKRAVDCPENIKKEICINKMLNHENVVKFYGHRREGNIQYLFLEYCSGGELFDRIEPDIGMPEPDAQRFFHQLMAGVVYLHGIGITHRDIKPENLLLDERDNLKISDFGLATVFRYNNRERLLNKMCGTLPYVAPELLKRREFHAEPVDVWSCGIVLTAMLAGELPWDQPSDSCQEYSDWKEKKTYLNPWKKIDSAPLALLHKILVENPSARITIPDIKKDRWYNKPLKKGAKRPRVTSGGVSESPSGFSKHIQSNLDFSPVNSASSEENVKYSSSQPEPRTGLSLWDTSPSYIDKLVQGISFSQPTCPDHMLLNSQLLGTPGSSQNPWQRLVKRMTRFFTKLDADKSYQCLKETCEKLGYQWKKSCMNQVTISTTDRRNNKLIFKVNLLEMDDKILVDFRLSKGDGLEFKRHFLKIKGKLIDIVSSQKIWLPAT
Chain of MAPKAPK2 (human) (P49137 whole entry, looked up): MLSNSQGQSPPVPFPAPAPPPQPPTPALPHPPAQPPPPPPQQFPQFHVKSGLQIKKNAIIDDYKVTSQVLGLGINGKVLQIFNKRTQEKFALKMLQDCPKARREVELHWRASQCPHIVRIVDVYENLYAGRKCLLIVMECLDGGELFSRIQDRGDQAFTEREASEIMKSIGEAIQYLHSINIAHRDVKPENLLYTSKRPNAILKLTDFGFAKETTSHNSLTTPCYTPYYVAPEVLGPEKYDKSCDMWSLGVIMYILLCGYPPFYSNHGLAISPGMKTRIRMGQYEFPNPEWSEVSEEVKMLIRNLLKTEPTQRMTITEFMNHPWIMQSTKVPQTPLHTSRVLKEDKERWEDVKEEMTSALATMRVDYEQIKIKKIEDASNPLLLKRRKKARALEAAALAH
Chain of PRKCB1 (human) (P05771 whole entry, looked up): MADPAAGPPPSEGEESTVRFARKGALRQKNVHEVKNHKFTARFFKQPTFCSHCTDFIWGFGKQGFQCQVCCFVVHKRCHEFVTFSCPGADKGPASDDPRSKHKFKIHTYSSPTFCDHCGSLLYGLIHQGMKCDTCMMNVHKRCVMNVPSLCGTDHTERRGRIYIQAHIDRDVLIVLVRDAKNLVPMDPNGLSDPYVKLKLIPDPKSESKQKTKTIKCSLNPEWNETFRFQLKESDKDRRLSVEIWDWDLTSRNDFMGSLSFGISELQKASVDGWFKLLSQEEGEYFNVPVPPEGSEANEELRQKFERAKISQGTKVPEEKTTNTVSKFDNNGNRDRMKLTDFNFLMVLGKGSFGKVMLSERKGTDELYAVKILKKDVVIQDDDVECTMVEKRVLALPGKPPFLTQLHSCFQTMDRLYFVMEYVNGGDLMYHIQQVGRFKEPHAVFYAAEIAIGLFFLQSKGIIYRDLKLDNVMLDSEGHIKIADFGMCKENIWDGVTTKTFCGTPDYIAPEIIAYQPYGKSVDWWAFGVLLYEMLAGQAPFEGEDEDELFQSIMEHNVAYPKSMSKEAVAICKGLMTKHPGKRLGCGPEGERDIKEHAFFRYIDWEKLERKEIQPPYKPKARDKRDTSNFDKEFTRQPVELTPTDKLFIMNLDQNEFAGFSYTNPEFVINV
Chain of AURKA (human) (O14965 whole entry, looked up): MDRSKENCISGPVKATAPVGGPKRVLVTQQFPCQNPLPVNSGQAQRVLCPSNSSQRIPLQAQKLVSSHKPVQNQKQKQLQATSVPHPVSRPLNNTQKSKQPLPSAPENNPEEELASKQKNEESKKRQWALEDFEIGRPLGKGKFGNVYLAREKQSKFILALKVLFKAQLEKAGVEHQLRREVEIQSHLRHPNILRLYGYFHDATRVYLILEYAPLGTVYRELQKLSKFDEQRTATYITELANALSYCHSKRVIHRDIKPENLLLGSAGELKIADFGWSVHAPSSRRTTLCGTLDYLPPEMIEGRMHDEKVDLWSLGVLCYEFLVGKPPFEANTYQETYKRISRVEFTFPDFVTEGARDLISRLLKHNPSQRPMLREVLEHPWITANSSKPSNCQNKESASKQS
Chain of IKBKE (human) (Q14164 whole entry, looked up): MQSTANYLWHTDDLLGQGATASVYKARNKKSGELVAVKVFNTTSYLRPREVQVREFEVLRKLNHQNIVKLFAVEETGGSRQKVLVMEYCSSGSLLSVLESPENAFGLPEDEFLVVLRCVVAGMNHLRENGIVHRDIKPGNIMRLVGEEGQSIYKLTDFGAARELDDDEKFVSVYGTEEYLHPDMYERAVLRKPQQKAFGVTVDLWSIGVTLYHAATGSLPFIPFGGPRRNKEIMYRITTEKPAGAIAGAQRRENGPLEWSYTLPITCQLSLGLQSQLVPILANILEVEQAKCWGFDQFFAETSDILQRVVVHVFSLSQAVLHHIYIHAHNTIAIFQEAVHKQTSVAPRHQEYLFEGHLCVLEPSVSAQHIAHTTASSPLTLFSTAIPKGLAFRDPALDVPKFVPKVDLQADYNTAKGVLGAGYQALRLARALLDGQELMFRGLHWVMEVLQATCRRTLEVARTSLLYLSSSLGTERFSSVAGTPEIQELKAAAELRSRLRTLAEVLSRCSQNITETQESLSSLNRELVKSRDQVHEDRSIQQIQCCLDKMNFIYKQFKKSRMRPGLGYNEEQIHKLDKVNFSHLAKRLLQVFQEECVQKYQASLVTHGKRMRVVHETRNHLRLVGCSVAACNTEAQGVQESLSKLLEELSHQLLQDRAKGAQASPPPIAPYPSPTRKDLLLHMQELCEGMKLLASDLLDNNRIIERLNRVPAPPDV
Chain of TAOK3 (human) (Q9H2K8 whole entry, looked up): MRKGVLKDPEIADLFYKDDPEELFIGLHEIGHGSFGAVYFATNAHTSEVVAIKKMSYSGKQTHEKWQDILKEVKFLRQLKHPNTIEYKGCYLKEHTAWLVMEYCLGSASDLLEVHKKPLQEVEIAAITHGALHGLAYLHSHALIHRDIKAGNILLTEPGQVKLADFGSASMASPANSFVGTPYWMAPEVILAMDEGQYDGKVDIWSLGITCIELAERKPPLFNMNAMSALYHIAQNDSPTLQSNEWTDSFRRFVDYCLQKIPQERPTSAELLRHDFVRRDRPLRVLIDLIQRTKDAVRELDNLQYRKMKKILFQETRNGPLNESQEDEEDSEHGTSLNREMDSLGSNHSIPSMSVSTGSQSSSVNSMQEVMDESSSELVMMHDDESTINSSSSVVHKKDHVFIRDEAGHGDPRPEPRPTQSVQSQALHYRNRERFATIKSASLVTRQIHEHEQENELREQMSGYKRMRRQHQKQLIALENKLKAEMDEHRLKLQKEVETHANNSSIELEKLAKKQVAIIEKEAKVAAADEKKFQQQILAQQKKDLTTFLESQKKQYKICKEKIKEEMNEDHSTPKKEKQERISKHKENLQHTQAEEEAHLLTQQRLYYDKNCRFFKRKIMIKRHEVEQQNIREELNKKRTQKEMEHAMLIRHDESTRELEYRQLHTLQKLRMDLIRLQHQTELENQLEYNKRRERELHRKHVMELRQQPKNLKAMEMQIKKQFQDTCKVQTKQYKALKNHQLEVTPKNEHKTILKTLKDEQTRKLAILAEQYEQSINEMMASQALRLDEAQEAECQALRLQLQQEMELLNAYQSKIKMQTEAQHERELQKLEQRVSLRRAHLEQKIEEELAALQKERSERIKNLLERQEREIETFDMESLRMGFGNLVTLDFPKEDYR
Chain of IKBKB (human) (O14920 whole entry, looked up): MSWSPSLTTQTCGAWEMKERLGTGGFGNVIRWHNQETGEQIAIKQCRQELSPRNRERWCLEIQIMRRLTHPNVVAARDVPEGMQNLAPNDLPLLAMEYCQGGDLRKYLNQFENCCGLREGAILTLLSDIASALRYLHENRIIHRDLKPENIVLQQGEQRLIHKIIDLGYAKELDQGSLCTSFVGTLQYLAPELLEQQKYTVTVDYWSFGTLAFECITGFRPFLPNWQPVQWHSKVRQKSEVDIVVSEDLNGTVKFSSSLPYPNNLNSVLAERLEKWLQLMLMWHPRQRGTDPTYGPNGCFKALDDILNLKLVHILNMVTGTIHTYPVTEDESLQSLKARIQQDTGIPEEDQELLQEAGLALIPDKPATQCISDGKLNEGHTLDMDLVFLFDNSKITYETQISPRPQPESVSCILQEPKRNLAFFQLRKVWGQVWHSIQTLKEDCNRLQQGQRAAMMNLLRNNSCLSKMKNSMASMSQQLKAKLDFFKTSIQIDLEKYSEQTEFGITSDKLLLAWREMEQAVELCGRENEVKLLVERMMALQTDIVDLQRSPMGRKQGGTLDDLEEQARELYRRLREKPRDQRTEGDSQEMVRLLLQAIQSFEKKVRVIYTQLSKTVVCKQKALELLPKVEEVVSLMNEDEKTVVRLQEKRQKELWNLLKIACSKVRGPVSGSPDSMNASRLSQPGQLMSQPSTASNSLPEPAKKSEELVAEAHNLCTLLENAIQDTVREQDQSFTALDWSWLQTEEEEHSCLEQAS
Chain of LCK (human) (P06239 whole entry, looked up): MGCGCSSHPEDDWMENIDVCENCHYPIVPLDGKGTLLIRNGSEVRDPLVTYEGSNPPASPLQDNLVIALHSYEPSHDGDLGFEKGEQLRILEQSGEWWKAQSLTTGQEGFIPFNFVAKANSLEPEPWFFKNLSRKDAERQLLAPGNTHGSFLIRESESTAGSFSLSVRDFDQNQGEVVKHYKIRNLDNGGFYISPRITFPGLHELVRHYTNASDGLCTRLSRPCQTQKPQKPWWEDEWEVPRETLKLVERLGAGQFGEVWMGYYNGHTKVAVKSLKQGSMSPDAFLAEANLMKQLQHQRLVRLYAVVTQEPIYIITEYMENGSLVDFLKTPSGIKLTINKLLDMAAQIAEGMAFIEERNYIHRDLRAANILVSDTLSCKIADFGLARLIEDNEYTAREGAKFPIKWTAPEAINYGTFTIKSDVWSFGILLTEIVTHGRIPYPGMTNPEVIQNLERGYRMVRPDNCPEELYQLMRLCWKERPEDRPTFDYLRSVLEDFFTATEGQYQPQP

Row | inhibition (PDPK1 (human)) | inhibition (CSNK2A1 (human)) | inhibition (MAPKAPK2 (human)) | inhibition (PAK4 (human)) | inhibition (GSK3B (human)) | inhibition (IKBKE (human)) | inhibition (MAPK1 (human)) | inhibition (SRC (human)) | inhibition (IKBKB (human)) | inhibition (FGFR1 (human)) | inhibition (AKT1 (human)) | inhibition (ROCK1 (human)) | inhibition (PRKCB1 (human)) | inhibition (MST4 (human)) | inhibition (ABL1 (human)) | inhibition (TAOK3 (human)) | inhibition (MET (human)) | inhibition (KDR (human)) | inhibition (CHEK1 (human)) | inhibition (AURKA (human)) | Structure (SMILES) | other results
1 | 0% | 0% | 0% | 6.86% | 52.6% | 0% | 11.7% | 16.6% | 0% | 0% | 0.56% | 4.88% | 23.6% | 0% | 3.15% | 15.7% | 0% | 13.5% | 0% | 0% | CS(=O)c1ccc(-c2nc(-c3ccc(F)cc3)c(-c3ccncc3)[nH]2)cc1 (stereo not given) | inhibition (PRKACA (human)): 18.4%; inhibition (CDK2 (human)): 0%; inhibition (LCK (human)): 7.1%; inhibition (INSR (human)): 0.995%; inhibition (NTRK1 (human)): 4.44%
2 | 0% | 20.5% | 73.7% | 4.1% | 3.4% | 0% | 11.7% | 9.9% | 0% | 0% | 3.5% | 5.4% | 0% | 10% | 0% | 33.8% | 30.4% | 11.9% | 1.8% | 0% | O=C1NCCc2[nH]c(-c3ccnc(-c4ccccc4F)c3)cc21 | inhibition (PRKACA (human)): 4.3%; inhibition (CDK2 (human)): 7%; inhibition (LCK (human)): 0%; inhibition (MAPK14 (human)): 6.7%
3 | 0% | 0% | 0% | – | 0% | 0% | 1.5% | 0.9% | 0% | 0% | 16% | 86.1% | 5.6% | 3.5% | 0% | 0% | 0% | 4% | 0% | 4.4% | O=S(=O)(c1cccc2cnccc12)N1CCCNCC1 | inhibition (CDK2 (human)): 0%; inhibition (LCK (human)): 0%; inhibition (INSR (human)): 1.9%; inhibition (MAPK14 (human)): 0.9%; inhibition (NTRK1 (human)): 0.9%
4 | 0% | 0% | 0% | 5.7% | 13.6% | 6.5% | 2.3% | 36.7% | 6.5% | 0% | 11.1% | 0% | 27.9% | 18.7% | 80.6% | 0% | 19.4% | 63.6% | 0% | 39.1% | C#Cc1cccc(Nc2ncnc3cc(OCCOC)c(OCCOC)cc23)c1 | inhibition (PRKACA (human)): 0.1%; inhibition (CDK2 (human)): 0%; inhibition (INSR (human)): 3.4%; inhibition (MAPK14 (human)): 0%; inhibition (NTRK1 (human)): 18.5%
5 | 0% | 1% | 0.2% | 5.3% | 2.8% | 3.9% | 6.6% | 93.4% | 4.4% | 50.1% | 10.6% | 2.8% | 17.5% | 14.8% | 82.9% | 17.4% | 11.3% | 70.6% | 0% | 8.8% | Cc1ccc(-c2nn(C(C)(C)C)c3ncnc(N)c23)cc1 | inhibition (PRKACA (human)): 29.2%; inhibition (CDK2 (human)): 2.5%; inhibition (LCK (human)): 94.5%; inhibition (MAPK14 (human)): 33.7%; inhibition (NTRK1 (human)): 49.8%
6 | 0% | 0% | 0% | 0% | 0% | 0% | 0% | 0% | 0% | 0% | 0% | 0% | 0% | 0% | 0% | 0% | 0% | 0% | 0% | 0% | CS(=O)(=O)CCNCc1ccc(-c2ccc3ncnc(Nc4ccc(OCc5cccc(F)c5)c(Cl)c4)c3c2)o1 | inhibition (PRKACA (human)): 0%; inhibition (CDK2 (human)): 0%; inhibition (LCK (human)): 0%; inhibition (INSR (human)): 0%; inhibition (MAPK14 (human)): 0%; inhibition (NTRK1 (human)): 0%
7 | 0% | 1.93% | 0% | 2.92% | 0% | 0.63% | 0% | 4.9% | 0% | 0% | 0% | 0% | 8.46% | 0% | 8.86% | 3.7% | 0% | 1.35% | 0% | 0% | CC[C@@H](CO)Nc1nc(NCc2ccccc2)c2ncn(C(C)C)c2n1 | inhibition (EGFR (human)): 5.07%; inhibition (PRKACA (human)): 5.58%; inhibition (LCK (human)): 0%; inhibition (INSR (human)): 1.28%; inhibition (MAPK14 (human)): 5.04%; inhibition (NTRK1 (human)): 3.46%
